IC50 data for 14 compounds are collected here from patent publication US11530244B2, “Cyclic polypeptides for PCSK9 inhibition” (priority 2018, dated 2022).

Molecules are shown by their SMILES. Starred links: 1 amine or outer side, 2 acyl side, 3 side chain; linkers in the order of their positions; H or OH if unused. Positions of bridges follow the written chain, without caps; N, C: chain ends. Non-standard residues stand in square brackets, D forms with d. Residues, ends and D or L forms follow the SMILES beside them. ξ: configuration not given here. Phe(3-CH2NH2) = O=C([C@H](Cc1cccc(CN[*:3])c1)N[*:1])[*:2]; NHCH2(1,3-C6H4)CH2CO = O=C(Cc1cccc(CN[*:1])c1)[*:2]; Pro(cis-4-CF3) = O=C(O)[C@@H]1C[C@H](C(F)(F)F)CN1; Trp(5-F) = N[C@@H](Cc1c[nH]c2ccc(F)cc12)C(=O)O; Phe(4-CH2NH2) = NCc1ccc(C[C@H](N)C(=O)O)cc1; mXylylene(5-F) = Fc1cc(C[*:1])cc(C[*:2])c1; ξPhe(4-COOH) = NC(Cc1ccc(C(=O)O)cc1)C(=O)O; isoGln = NC(=O)[C@H](CCC(=O)[*:2])N[*:1]; Nle(6-COOH) = N[C@@H](CCCCC(=O)O)C(=O)O; X4 = O=C(CCSCc1cccc(CSCCN[*:1])c1)[*:2]; mXylylene = c1cc(C[*:1])cc(C[*:2])c1; NMeY = CN[C@@H](Cc1ccc(O)cc1)C(=O)O; d(aThr) = C[C@@H](O)[C@@H](N)C(=O)O; X7 = O=C(Cc1ccc(CN[*:1])cc1)[*:2]; X8 = Clc1cc(C[*:1])cc(C[*:2])c1; aThr = C[C@H](O)[C@H](N)C(=O)O; αMeP = C[C@@]1(C(=O)O)CCCN1; dOrn = NCCC[C@@H](N)C(=O)O; hSer = N[C@@H](CCO)C(=O)O; ξD = NC(CC(=O)O)C(=O)O; Mpa = O=C(O)CCS

Common to all, as to type: binding
The target in test [1] is T1, PCSK9 (Homo sapiens (Human), UniProt Q8NBP7). The test can be described thus: PCSK9 Alexa FRET Standard assay (displacement of AlexaFluor647 tagged cyclic peptide Reagent A). As to conditions: PCSK9 Alexa FRET Standard assay, 0.5 nM PCSK9, 20 nM AF cyclic peptide Reagent A; read-out: IC50. The essentials:
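TR-FRET displacement: 0.5 nM biotinylated PCSK9 with 1.25 nM Strep-Eu and 20 nM AlexaFluor-tagged cyclic peptide (final) in 50 mM HEPES pH 7.4, 0.15 M NaCl, 5 mM CaCl2, 0.01% BSA, 0.01% P20, ≥2 h at room temperature. IC50 from sigmoidal fit, converted to Ki via peptide KD; falling Eu counts flagged false positives.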

For test [2], the target named is human PCSK9 / human LDLR EGFa domain interaction (Homo sapiens (Human), UniProt Q8NBP7). Kind of test: TR-FRET assay of inhibition of the PCSK9-LDLR protein-protein interaction. As to conditions: TR-FRET, 20 nM human PCSK9, 20 nM human LDLR EGFa domain, 2 hours room temperature; read-out: IC50. The essentials: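 Readout is the TR-FRET signal between europium anti-6×His on his-tagged LDLR EGFa domain and Ulight streptavidin on biotinylated PCSK9, both proteins at 20 nM and both detection reagents at 5 nM. Incubation lasted 2 hours at room temperature; compounds were run in dose-response with a 4-parameter fit.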
human PCSK9 / human LDLR EGFa domain interaction, sequence (Q8NBP7 153-692): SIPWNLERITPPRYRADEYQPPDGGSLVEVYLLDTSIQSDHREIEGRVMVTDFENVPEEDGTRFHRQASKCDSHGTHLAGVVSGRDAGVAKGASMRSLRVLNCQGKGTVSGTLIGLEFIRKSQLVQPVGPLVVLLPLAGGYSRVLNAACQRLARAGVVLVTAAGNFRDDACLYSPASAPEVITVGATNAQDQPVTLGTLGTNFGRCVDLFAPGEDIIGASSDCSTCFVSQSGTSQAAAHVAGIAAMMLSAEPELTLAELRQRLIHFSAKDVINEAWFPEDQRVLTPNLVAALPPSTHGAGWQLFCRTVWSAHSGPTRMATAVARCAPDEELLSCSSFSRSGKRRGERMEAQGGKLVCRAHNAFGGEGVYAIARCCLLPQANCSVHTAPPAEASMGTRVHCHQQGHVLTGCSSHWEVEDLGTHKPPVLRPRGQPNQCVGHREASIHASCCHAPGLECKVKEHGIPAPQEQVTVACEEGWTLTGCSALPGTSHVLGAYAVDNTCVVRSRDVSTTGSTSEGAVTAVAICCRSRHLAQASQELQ
human PCSK9 / human LDLR EGFa domain interaction, sequence (Q8NBP7 31-152 partner): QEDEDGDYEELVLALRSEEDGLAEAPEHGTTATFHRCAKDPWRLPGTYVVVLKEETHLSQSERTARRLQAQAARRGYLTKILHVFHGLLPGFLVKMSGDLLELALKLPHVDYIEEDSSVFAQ
Background: TR-FRET usually uses a lanthanide donor and a delayed reading to cut background.

Test [3] has as its target T1, PCSK9. The test can be described thus: PCSK9 Alexa FRET Plus assay (displacement of AlexaFluor647 tagged cyclic peptide Reagent B). Particulars: 0.5 nM PCSK9, 960 nM AF cyclic peptide Reagent B. A digest of the protocol:
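TR-FRET displacement with final 0.5 nM biotinylated PCSK9, 1.25 nM Strep-Eu and 960 nM AlexaFluor-tagged cyclic peptide in HEPES pH 7.4, NaCl, CaCl2, BSA, P20; ≥2 h at room temperature. IC50 from sigmoidal fit, converted to Ki using peptide KD. Falling europium counts flagged false positives.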

Setting [4] is: Alexa FRET Plus, read-out: IC50.

T1 sequence (Q8NBP7 153-692): as the sequence (Q8NBP7 153-692) above

As for `NCCCC[C@@H]1NC(=O)CCCn2cc(nn2)C[C@@H](C(N)=O)NC(=O)[C@@H]2CCCN2C(=O)[C@H](Cc2ccc(O)cc2)NC(=O)[C@H](Cc2c[nH]cn2)NC(=O)[C@H](CC(=O)O)NC(=O)[C@H](Cc2c[nH]c3ccc(F)cc23)NC(=O)[C@H](Cc2c[nH]c3ccc(F)cc23)NC(=O)CNC1=O` [Compound 184], the concentration for half-maximal inhibition (IC50) on PCSK9 [1] was 0.11 to 100 nM; in test [2], 0.1 to 100 nM; on PCSK9 [3] (setting [4]), 0.1 to 100 nM.
Consider `COc1ccc(C[C@@H]2NC(=O)[C@H](C(C)C)NC(=O)[C@@H]3CCCN3C(=O)[C@H](Cc3c[nH]c4ccc(F)cc34)NC(=O)[C@H](Cc3c[nH]c4ccc(F)cc34)NC(=O)[C@@H](C)NC(=O)[C@H](CCCCN)NC(=O)CCSCc3cc(F)cc(c3)CSC[C@@H](C(N)=O)NC(=O)[C@]3(C)CCCN3C2=O)cc1` [Compound 010] ([Mpa]K[dA][Trp(5-F)][Trp(5-F)]PVY(Me)[αMeP]C-NH2; linker 1-10 via mXylylene(5-F)), for which the IC50 on PCSK9 [1] is 100 to 1000 nM; in test [2], 0.1 to 100 nM; on PCSK9 [3] (setting [4]) it was 500 to 5000 nM.
As to `C[C@H]1NC(=O)[C@H](CCCCN)NC(=O)CCSCc2cccc(c2)CSCCNC(=O)[C@]2(C)CCCN2C(=O)[C@H](Cc2ccc(O)cc2)N(C)C(=O)[C@H](Cc2c[nH]cn2)NC(=O)[C@H](CC(=O)O)NC(=O)[C@H](Cc2c[nH]c3ccc(F)cc23)NC(=O)[C@H](Cc2c[nH]c3ccc(F)cc23)NC1=O` [Compound 277] (cyclo(DH[NMeY][αMeP][X4]K[dA][Trp(5-F)][Trp(5-F)])), the figures for the IC50 (on PCSK9 [1]; in test [2]; at PCSK9 [3] (setting [4])) were 0.11 to 100 nM, 0.1 to 100 nM and 100 to 500 nM, respectively.
Taken in the same sequence, the figures for `COc1ccc(C[C@@H]2NC(=O)[C@H](Cc3cnc[nH]3)NC(=O)[C@H](CC(=O)O)NC(=O)[C@H](Cc3c[nH]c4ccc(F)cc34)NC(=O)[C@H](Cc3c[nH]c4ccc(F)cc34)NC(=O)[C@@H](C)NC(=O)[C@H](NC(C)=O)CCCCNC(=O)Cc3ccc(cc3)CNC(=O)CC[C@@H](C(N)=O)NC(=O)[C@]3(C)CCCN3C2=O)cc1` [Compound 398] (Ac-[dK][dA][Trp(5-F)][Trp(5-F)]DHY(Me)[αMeP][isoGln][X7]; lactam 1-C) were 0.11 to 100 nM, 0.1 to 100 nM and 100 to 500 nM.
As to `NCCCC[C@@H]1NC(=O)CCSCc2cccc(c2)CSC[C@@H](C(N)=O)NC(=O)[C@@H]2C[C@H](C(F)(F)F)CN2C(=O)[C@H](Cc2ccc(O)cc2)NC(=O)[C@H](Cc2c[nH]cn2)NC(=O)[C@H](CC(=O)O)NC(=O)[C@H](Cc2c[nH]c3ccc(F)cc23)NC(=O)[C@H](Cc2c[nH]c3ccc(F)cc23)NC(=O)CNC1=O` [Compound 296] ([Mpa]KG[Trp(5-F)][Trp(5-F)]DHY[Pro(cis-4-CF3)]C-NH2; linker 1-10 via mXylylene), the values for the concentration for half-maximal inhibition (IC50) (on PCSK9 [1]; in test [2]; at PCSK9 [3] (setting [4])) were 0.11 to 100 nM, 0.1 to 100 nM and 0.1 to 100 nM, respectively.
As for `C[C@@]12CCCN1C(=O)[C@H](Cc1ccc(O)cc1)NC(=O)[C@H](Cc1cnc[nH]1)NC(=O)[C@H](CC(=O)O)NC(=O)[C@H](Cc1c[nH]c3ccc(F)cc13)NC(=O)[C@H](Cc1c[nH]c3ccc(F)cc13)NC(=O)CNC(=O)[C@H](CCO)NC(=O)CCSCc1cccc(c1)CSC[C@@H](C(N)=O)NC2=O` [Compound 376] ([Mpa][hSer]G[Trp(5-F)][Trp(5-F)]DHY[αMeP]C-NH2; linker 1-10 via mXylylene), the concentration for half-maximal inhibition (IC50) on PCSK9 [1] is 0.11 to 100 nM; in test [2] it was 0.1 to 100 nM; at PCSK9 [3] (setting [4]) it was 100 to 500 nM.
For `COc1ccc(C[C@@H]2NC(=O)[C@@H]([C@@H](C)O)NC(=O)[C@H](CCCCC(=O)O)NC(=O)[C@H](Cc3c[nH]c4ccc(F)cc34)NC(=O)[C@H](Cc3ccc(CN)cc3)NC(=O)[C@@H](C)NC(=O)[C@H](C)NC(=O)CCSCc3cccc(c3)CSCCNC(=O)[C@]3(C)CCCN3C2=O)cc1` [Compound 385] (cyclo(A[dA][Phe(4-CH2NH2)][Trp(5-F)][Nle(6-COOH)][d(aThr)]Y(Me)[αMeP][X4])), the IC50 at PCSK9 [1] lay within 0.11 to 100 nM; in test [2] it was 0.1 to 100 nM; on PCSK9 [3] (setting [4]), 0.1 to 100 nM.
As for `COc1ccc(C[C@@H]2NC(=O)[C@H]([C@@H](C)O)NC(=O)[C@@H]3C[C@H](F)CN3C(=O)[C@H](Cc3c[nH]c4ccc(F)cc34)NC(=O)[C@H](Cc3c[nH]c4ccc(F)cc34)NC(=O)[C@@H](C)NC(=O)CNC(=O)CCCCNCc3ccc(cc3)C[C@@H](C(N)=O)NC(=O)[C@]3(C)CCCN3C2=O)cc1` [Compound 130], the half-inhibitory concentration (IC50) is 0.11 to 100 nM on PCSK9 [1]; 0.1 to 100 nM in test [2]; 100 to 500 nM at PCSK9 [3] (IC50, Alexa FRET Plus).
For `COc1ccc(C[C@@H]2NC(=O)[C@H](Cc3cnc[nH]3)NC(=O)[C@H](CC(=O)O)NC(=O)[C@H](Cc3c[nH]c4ccc(F)cc34)NC(=O)[C@H](Cc3c[nH]c4ccc(F)cc34)NC(=O)[C@@H](C)NC(=O)Cc3cccc(c3)CNC(=O)CC(C(=O)O)NC(=O)[C@]3(C)CCCN3C2=O)cc1` (stereo partly drawn) [Compound 401] ([NHCH2(1,3-C6H4)CH2CO][dA][Trp(5-F)][Trp(5-F)]DHY(Me)[αMeP][ξD]-OH; lactam N-9), the IC50 at PCSK9 [1] lay within 0.11 to 100 nM; in test [2], 0.1 to 100 nM; at PCSK9 [3] (setting [4]), 0.1 to 100 nM.
In the case of `CC(=O)N[C@@H]1CCCNC(=O)c2ccc(cc2)CC(C(N)=O)NC(=O)[C@]2(C)CCCN2C(=O)[C@H](Cc2ccc(O)cc2)NC(=O)[C@H](Cc2cnc[nH]2)NC(=O)[C@H](CC(=O)O)NC(=O)[C@H](Cc2c[nH]c3ccc(F)cc23)NC(=O)[C@H](Cc2c[nH]c3ccc(F)cc23)NC(=O)CNC1=O` (stereo partly drawn) [Compound 327] (Ac-[dOrn]G[Trp(5-F)][Trp(5-F)]DHY[αMeP][ξPhe(4-COOH)]-NH2; lactam 1-9), the results for the IC50 (on PCSK9 [1]; in test [2]; at PCSK9 [3] (setting [4])) were 0.11 to 100 nM, 0.1 to 100 nM and 100 to 500 nM, respectively.
Taken in the same sequence, the figures for `C[C@@]12CCCN1C(=O)[C@H](Cc1ccc(O)cc1)NC(=O)[C@H](Cc1c[nH]cn1)NC(=O)[C@H](CC(=O)O)NC(=O)[C@H](Cc1c[nH]c3ccc(F)cc13)NC(=O)[C@H](Cc1c[nH]c3ccc(F)cc13)NC(=O)CNC(=O)[C@H](CCCCN)NC(=O)CCSCc1cc(Cl)cc(c1)CSC[C@@H](C(N)=O)NC2=O` [Compound 358] ([Mpa]KG[Trp(5-F)][Trp(5-F)]DHY[αMeP]C-NH2; linker 1-10 via X8) were 0.11 to 100 nM, 0.1 to 100 nM and 100 to 500 nM.
The corresponding values for `CC(C)C[C@@H]1NC(=O)[C@@H]2CCCN2C(=O)[C@H](Cc2c[nH]c3ccc(F)cc23)NC(=O)[C@H](Cc2c[nH]c3ccc(F)cc23)NC(=O)CNC(=O)[C@H](CCCCN)NC(=O)CCSCc2cccc(c2)CSC[C@@H](C(N)=O)NC(=O)[C@]2(C)CCCN2C(=O)[C@H](Cc2ccc(O)cc2)NC1=O` [Compound 004] ([Mpa]KG[Trp(5-F)][Trp(5-F)]PLY[αMeP]C-NH2; linker 1-10 via mXylylene) are 0.11 to 100 nM, 0.1 to 100 nM and 100 to 500 nM.
Taken in the same sequence, the figures for `CO[C@@H](C)[C@@H]1NC(=O)CCSCc2cccc(c2)CSC[C@@H](C(N)=O)NC(=O)[C@]2(C)CCCN2C(=O)[C@H](Cc2ccc(O)cc2)NC(=O)[C@H](Cc2cnc[nH]2)NC(=O)[C@H](CC(=O)O)NC(=O)[C@H](Cc2c[nH]c3ccc(F)cc23)NC(=O)[C@H](Cc2c[nH]c3ccc(F)cc23)NC(=O)CNC1=O` [Compound 377] ([Mpa][aThr](Me)G[Trp(5-F)][Trp(5-F)]DHY[αMeP]C-NH2; linker 1-10 via mXylylene) were 0.11 to 100 nM, 0.1 to 100 nM and 100 to 500 nM.
`COc1ccc(C[C@@H]2NC(=O)[C@H]([C@@H](C)OC)NC(=O)[C@H](CCC(=O)O)NC(=O)[C@H](Cc3c[nH]c4ccc(F)cc34)NC(=O)[C@H](Cc3cccc(CN)c3)NC(=O)[C@@H](C)NC(=O)[C@H](C)NC(=O)CCSCc3cccc(c3)CSCCNC(=O)[C@]3(C)CCCN3C2=O)cc1` [Compound 343] (cyclo(A[dA][Phe(3-CH2NH2)][Trp(5-F)]ET(Me)Y(Me)[αMeP][X4])): the figures for the IC50 (at PCSK9 [1]; in test [2]; at PCSK9 [3] (setting [4])) were 0.11 to 100 nM, 0.1 to 100 nM and 0.1 to 100 nM, respectively.

As usually defined, the IC50 is the concentration needed to halve the response being measured.
